Source: article PMC5785503, “Development of novel fluorescent histamine H1-receptor antagonists to study ligand-binding kinetics in living cells” (Scientific Reports, 2018)

Legend:
H1-YFP = target: T1, H1-YFP (Homo sapiens, UniProt P35367); format: cell-based
T1 construct: expressed in transfected cells
Procedure: CHO H1R and CHO H1-YFP cells were grown to approximately 80% confluency on 8-well Labtek chambered coverglasses (Nunc Nalgene). […] Cells were then incubated with the required concentration of fluorescent ligand for 30 min prior to the collection of single equatorial confocal images. Images were obtained using a Zeiss LSM710 confocal microscope (Carl Zeiss GmbH, Jena, Germany) fitted with a 63× plan-Apochromat NA1.3 Ph3 oil-immersion lens within the School of Life Sciences Imaging Unit. […] For all experiments a pinhole of 1 Airy Unit was used and fixed laser power, gain and offset for the BY630 containing compounds were kept the same for samples within each experiment.

Nluc-H1R [1] = target: T2, Nluc-H1R (Homo sapiens, UniProt P35367); assay: NanoBRET association kinetics in whole HEK293T cells; format: binding; conditions: for Kd: kinetic KD (koff/kon), whole HEK293T cells expressing Nluc-H1R, read-out: NanoBRET kinetics pKD (converted); for residence time: read-out: NanoBRET kinetics Tr (residence time); for koff: read-out: NanoBRET kinetics koff, whole HEK293T cells expressing Nluc-H1R, room temperature; for kon: read-out: NanoBRET kinetics kon, whole HEK293T cells expressing Nluc-H1R, room temperature, non-specific 10 μM doxepin
From the text: (§1) Immediately before experimentation, media was replaced with HBSS. […] […]. […] […].

human H1R = target: T3, human H1R (Homo sapiens, UniProt P35367); assay: [3H]mepyramine competition radioligand binding, HEK293T cell homogenates; conditions: read-out: Radioligand binding pKi (converted)
T3 construct: expressed in transfected cells
Procedure: […]. […] […]. All ligand binding was performed under gentle agitation. […] […].

Nluc-H1R [2] = target: T2, Nluc-H1R; assay: NanoBRET saturation binding in whole HEK293T cells
From the text: as §1

Nluc-H1R [3] = target: T2, Nluc-H1R; assay: NanoBRET association kinetics in HEK293T cell membranes; format: binding; conditions: kinetic, n = 4, read-out: pKD (calculated affinity) in membranes (converted)
Procedure: (§2) HEK293T cell stably expressing Nluc-H1 were grown to confluence in 500 cm^2 dishes. Normal growth media was replaced with ice-cold PBS and the cells were removed from the dish by scraping. The cells were then transferred to a 50 ml tube and centrifuged at 250 × g for 5 min. The supernatant was removed and the resulting pellets stored at −80 °C. Thawed pellets were resuspended in PBS and homogenized using an electrical homogenizer in 10 × 2 s bursts. Unbroken cells and nuclei were removed by centrifugation (1200 × g for 10 min) and the supernatant subsequently centrifuged at 41,415 g for 30 min. The membrane pellet was resuspended in PBS and homogenized by 20 passes of a glass-on-Teflon homogenizer. Protein concentration was determined using a BCA protein assay and membranes stored at −80 °C until required.
(§3) Immediately before experimentation, media was replaced with HBSS. […] For association kinetics experiments, the required concentration of fluorescent ligand in the presence or absence of 10 µM doxepin was added simultaneously. […] Non-specific binding was determined by the addition of […] 10 µM doxepin.
From association kinetic data, non-specific binding was determined for each concentration of fluorescent ligand at each time point by the addition of 10 µM doxepin and was subtracted from total binding.

Nluc-H1R [4] = target: T2, Nluc-H1R; assay: NanoBRET saturation binding in HEK293T cell membranes; conditions: value used in Cheng-Prusoff equation, read-out: KD of labelled ligand in membranes
Procedure: as §2, §3

H1R = target: H1R; design: method as in PMID 22007643; conditions: parent compound at the H1R; cited from earlier work
[5] = HEK293T cells expressing Nluc-H1R, mean ± SEM, read-out: NanoBRET saturation pKD (converted)
[6] = NanoBRET, value used in Cheng-Prusoff equation, read-out: KD of labelled ligand in whole cells

T2 sequence (P35367 2-487 limits assumed): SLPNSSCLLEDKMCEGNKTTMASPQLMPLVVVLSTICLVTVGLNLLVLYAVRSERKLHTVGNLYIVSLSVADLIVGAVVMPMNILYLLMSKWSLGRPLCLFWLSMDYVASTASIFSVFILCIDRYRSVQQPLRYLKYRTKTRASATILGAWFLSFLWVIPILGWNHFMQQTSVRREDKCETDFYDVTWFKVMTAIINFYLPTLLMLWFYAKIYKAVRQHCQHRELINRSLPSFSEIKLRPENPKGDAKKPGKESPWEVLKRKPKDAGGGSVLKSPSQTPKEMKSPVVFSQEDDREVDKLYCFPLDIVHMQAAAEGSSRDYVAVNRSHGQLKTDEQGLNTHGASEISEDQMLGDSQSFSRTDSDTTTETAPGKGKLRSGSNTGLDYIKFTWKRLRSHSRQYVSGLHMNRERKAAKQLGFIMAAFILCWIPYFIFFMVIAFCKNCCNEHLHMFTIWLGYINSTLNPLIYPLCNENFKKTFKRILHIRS
T1 sequence (P35367 whole entry): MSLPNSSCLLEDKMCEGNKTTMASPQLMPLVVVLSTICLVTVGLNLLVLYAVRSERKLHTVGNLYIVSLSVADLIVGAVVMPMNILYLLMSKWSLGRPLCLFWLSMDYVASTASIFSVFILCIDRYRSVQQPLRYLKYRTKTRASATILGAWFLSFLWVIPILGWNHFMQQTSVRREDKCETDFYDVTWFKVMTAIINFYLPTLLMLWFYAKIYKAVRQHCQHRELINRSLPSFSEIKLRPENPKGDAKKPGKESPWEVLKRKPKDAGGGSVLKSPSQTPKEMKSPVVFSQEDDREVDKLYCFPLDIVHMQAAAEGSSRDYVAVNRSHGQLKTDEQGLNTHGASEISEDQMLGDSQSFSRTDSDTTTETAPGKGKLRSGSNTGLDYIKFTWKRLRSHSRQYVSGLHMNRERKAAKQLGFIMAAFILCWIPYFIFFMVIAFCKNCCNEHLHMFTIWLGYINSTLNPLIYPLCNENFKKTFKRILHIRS
T3 sequence (P35367 whole entry): as above

COc1ccc(CN(CCN(C)CCC(=O)NCCCC(=O)N[C@@H](C)C(=O)N[C@@H](C)C(=O)NCCNC(=O)CCCCCNC(=O)COc2ccc(/C=C/C3=[N+]4C(=Cc5ccc(-c6cccs6)n5[B-]4(F)F)C=C3)cc2)c2ccccn2)cc1 [Compound 12, 5,5-difluoro-3-((E)-4-(((15 R,18 R)-1-(4-methoxyphenyl)-5,15,18-trimethyl-8,13,16,19,24,31-hexaoxo-2-(pyridin-2-yl)-2,5,9,14,17,20,23,30-octaazadotriacontan-32-yl)oxy)styryl)-7-(thiophen-2-yl)-5H-4λ^4-dipyrrolo[1,2-c:2′,1′-f][1,3,2]diazaborinin-5-uide]
BODIPY630/650 fluorescence localisation (confocal) (H1-YFP): clear membrane localisation | fluorescence after pre-treatment with unlabelled mepyramine (specificity, confocal) (H1-YFP): very little fluorescence was observed | Kd (Nluc-H1R [1]): 39.8 nM | residence time (Nluc-H1R [1]): 7.68 ± 0.58 min | koff (Nluc-H1R [1]): 0.00223 s⁻¹ | kon (Nluc-H1R [1]): 55000 M⁻¹ s⁻¹ | Ki (human H1R): 20 nM | Kd (Nluc-H1R [2]; [5]): 50.1 nM

COc1ccc(CN(CCN(C)CCC(=O)N[C@@H](C)C(=O)N[C@@H](C)C(=O)NCCNC(=O)CCCCCNC(=O)COc2ccc(/C=C/C3=[N+]4C(=Cc5ccc(-c6cccs6)n5[B-]4(F)F)C=C3)cc2)c2ccccn2)cc1 [Compound 10, 6-(2-(4-((E)-2-(5,5-difluoro-7-(thiophen-2-yl)-5H-4λ^4,5λ^4-dipyrrolo[1,2-c:2′,1′-f][1,3,2]diazaborinin-3-yl)vinyl)phenoxy)acetamido)-N-((10 S,13 S)-1-(4-methoxyphenyl)-5,10,13-trimethyl-8,11,14-trioxo-2-(pyridin-2-yl)-2,5,9,12,15-pentaazaheptadecan-17-yl)hexanamide]
BODIPY630/650 fluorescence localisation (confocal) (H1-YFP): clear membrane localisation | fluorescence after pre-treatment with unlabelled mepyramine (specificity, confocal) (H1-YFP): very little fluorescence was observed | Kd (Nluc-H1R [1]): 5.01 nM | residence time (Nluc-H1R [1]): 4.99 ± 0.78 min | Ki (human H1R): 25.1 nM | Kd (Nluc-H1R [3]): 3.55 nM | Kd (Nluc-H1R [2]; [5]): 7.94 nM | Kd (Nluc-H1R [2]; [6]): 9.2 nM | Kd (Nluc-H1R [4]): 28.8 nM

NC(=O)C[C@H](NC(=O)CNC(=O)CNC(=O)CCN1CCC(Oc2ccccc2Cc2ccccc2)CC1)C(=O)NCCNC(=O)CCCCCNC(=O)COc1ccc(/C=C/C2=[N+]3C(=Cc4ccc(-c5cccs5)n4[B-]3(F)F)C=C2)cc1 [Compound 24, (S,E)-2-(2-(2-(3-(4-(2-benzylphenoxy)piperidin-1-yl)propanamido)acetamido)acetamido)-N^1-(2-(6-(2-(4-(2-(5,5-difluoro-7-(thiophen-2-yl)-5H-4λ^4,5λ^4-dipyrrolo[1,2-c:2′,1′-f][1,3,2]diazaborinin-3-yl)vinyl)phenoxy)acetamido)hexanamido)ethyl)succinamide]
Kd (Nluc-H1R [1]): 10 nM | residence time (Nluc-H1R [1]): 37.8 ± 3.44 min | koff (Nluc-H1R [1]): 0.00045 s⁻¹ | kon (Nluc-H1R [1]): 48300 M⁻¹ s⁻¹ | Ki (human H1R): 5.01 nM | Kd (Nluc-H1R [2]; [5]): 25.1 nM

COc1ccc(CN(CCN(C)CCC(=O)N[C@@H](C)C(=O)N[C@@H](C)C(=O)N[C@@H](CO)C(=O)NCCNC(=O)CCCCCNC(=O)COc2ccc(/C=C/C3=[N+]4C(=Cc5ccc(-c6cccs6)n5[B-]4(F)F)C=C3)cc2)c2ccccn2)cc1 [Compound 11, 6-(2-(4-((E)-2-(5,5-difluoro-7-(thiophen-2-yl)-5H-4λ^4,5λ^4-dipyrrolo[1,2-c:2′,1′-f][1,3,2]diazaborinin-3-yl)vinyl)phenoxy)acetamido)-N-((10 S,13 S,16 S)-16-(hydroxymethyl)-1-(4-methoxyphenyl)-5,10,13-trimethyl-8,11,14,17-tetraoxo-2-(pyridin-2-yl)-2,5,9,12,15,18-hexaazaicosan-20-yl)hexanamide]
BODIPY630/650 fluorescence localisation (confocal) (H1-YFP): clear membrane localisation | fluorescence after pre-treatment with unlabelled mepyramine (specificity, confocal) (H1-YFP): some residual cell surface fluorescence was observed | Kd (Nluc-H1R [1]): 6.31 nM | residence time (Nluc-H1R [1]): 8.4 ± 0.91 min | koff (Nluc-H1R [1]): 0.0021 s⁻¹ | kon (Nluc-H1R [1]): 330000 M⁻¹ s⁻¹ | Ki (human H1R): 10 nM | Kd (Nluc-H1R [2]; [5]): 63.1 nM

CC(O)[C@H](NC(=O)[C@H](C)NC(=O)[C@H](CC(N)=O)NC(=O)CCN1CCC(Oc2ccccc2Cc2ccccc2)CC1)C(=O)NCCNC(=O)CCCCCNC(=O)COc1ccc(/C=C/C2=[N+]3C(=Cc4ccc(-c5cccs5)n4[B-]3(F)F)C=C2)cc1 (stereo partly drawn) [Compound 25, (S)-2-(3-(4-(2-benzylphenoxy)piperidin-1-yl)propanamido)-N^1-((15 S,18 S)-1-(4-((E)-2-(5,5-difluoro-7-(thiophen-2-yl)-5H-4λ^4,5λ^4-dipyrrolo[1,2-c:2′,1’-f][1,3,2]diazaborinin-3-yl)vinyl)phenoxy)-15-((S)-1-hydroxyethyl)-2,9,14,17-tetraoxo-3,10,13,16-tetraazanonadecan-18-yl)succinamide]
Kd (Nluc-H1R [1]): 10 nM | residence time (Nluc-H1R [1]): 39.5 ± 9.4 min | koff (Nluc-H1R [1]): 0.0005 s⁻¹ | kon (Nluc-H1R [1]): 43300 M⁻¹ s⁻¹ | Ki (human H1R): 6.31 nM | Kd (Nluc-H1R [2]; [5]): 31.6 nM

C[C@H](NC(=O)CCN1CCC(Oc2ccccc2Cc2ccccc2)CC1)C(=O)N[C@@H](C)C(=O)N[C@@H](C)C(=O)NCCNC(=O)CCCCCNC(=O)COc1ccc(/C=C/C2=[N+]3C(=Cc4ccc(-c5cccs5)n4[B-]3(F)F)C=C2)cc1 [Compound 23, N-((5 S,8 S,11 S)-15-(4-(2-benzylphenoxy)piperidin-1-yl)-5,8,11-trimethyl-4,7,10,13-tetraoxo-3,6,9,12-tetraazapentadecyl)-6-(2-(4-((E)-2-(5,5-difluoro-7-(thiophen-2-yl)-5H-4λ^4,5λ^4-dipyrrolo[1,2-c:2′,1′-f][1,3,2]diazaborinin-3-yl)vinyl)phenoxy)acetamido)hexanamide]
fluorescence after pre-treatment with unlabelled mepyramine (specificity, confocal) (H1-YFP): Some residual binding was observed | Kd (Nluc-H1R [1]): 12.6 nM | residence time (Nluc-H1R [1]): 54.1 ± 5.33 min | koff (Nluc-H1R [1]): 0.000317 s⁻¹ | kon (Nluc-H1R [1]): 26700 M⁻¹ s⁻¹ | Ki (human H1R): 3.98 nM | Kd (Nluc-H1R [2]; [5]): 7.94 nM | Kd (Nluc-H1R [2]; [6]): 9.8 nM

c1ccc(Cc2ccccc2OC2CCNCC2)cc1 [VUF13816, 4-(2-benzylphenoxy)piperidine]
pKi (H1R): 8.20
